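The compound was tested at five concentrations on cells cultured in 96-well plates, with a 48-hour exposure period. At the GI50, growth is halved. TGI: total growth inhibition.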
Experiments:
Test in all cases: inhibition of tumour cell growth, NCI panel, 48 h
[1] = system: PC-3 prostate
[2] = system: LOX IMVI melanoma
[3] = system: MOLT-4 leukemia
[4] = system: HS 578T breast
[5] = system: A498 renal
[6] = system: SNB-19 CNS
[7] = system: SN12C renal
[8] = system: SW-620 colon
[9] = system: BT-549 breast
[10] = system: NCI-H23 lung
[11] = system: DU-145 prostate
[12] = system: HT29 colon
[13] = system: NCI-H522 lung
[14] = system: UO-31 renal
[15] = system: MCF7 breast
[16] = system: OVCAR-5 ovarian
[17] = system: U251 CNS
[18] = system: HCT-116 colon
[19] = system: OVCAR-8 ovarian
[20] = system: M14 melanoma
[21] = system: CCRF-CEM leukemia
[22] = system: HCT-15 colon
[23] = system: IGROV1 ovarian
[24] = system: 786-0 renal
[25] = system: HOP-92 NSCLC
[26] = system: SK-MEL-5 melanoma
[27] = system: SF-268 CNS
[28] = system: UACC-62 melanoma
[29] = system: HCC-2998 colon
[30] = system: SF-295 CNS
[31] = system: NCI/ADR-RES ovarian
[32] = system: ACHN renal
[33] = system: SNB-75 CNS
[34] = system: KM12 colon
[35] = system: T-47D breast
[36] = system: NCI-H226 lung
[37] = system: UACC-257 melanoma
[38] = system: K-562 leukemia
[39] = system: OVCAR-3 ovarian
[40] = system: SF-539 CNS
[41] = system: RPMI-8226 leukemia
[42] = system: HOP-62 NSCLC
[43] = system: EKVX NSCLC
[44] = system: SK-MEL-28 melanoma
[45] = system: NCI-H460 lung
[46] = system: MDA-MB-435
[47] = system: COLO 205 colon
[48] = system: MDA-MB-231 breast
[49] = system: OVCAR-4 ovarian
[50] = system: A549 NSCLC
[51] = system: SK-OV-3 ovarian
[52] = system: SR leukemia
[53] = system: RXF 393 renal
[54] = system: TK-10 renal
[55] = system: MALME-3M melanoma

In the case of `O=C(Nc1nc2c(C(F)(F)F)cccc2s1)c1cc(Cl)ccc1O`, the GI50 [1] is reported as 0.302 µM, the TGI [1] is reported as 30.3 µM and the GI50 [2] is reported as 0.32 µM. It also gave a TGI [2] of 10.8 µM, a GI50 [3] of 0.318 µM and a TGI [3] of 1.21 µM. It also gave a GI50 [4] of 0.268 µM, a TGI [4] of 26.3 µM and a GI50 [5] of 0.181 µM. It also gave a TGI [5] of 0.519 µM, a GI50 [6] of 0.345 µM and a TGI [6] of 65.6 µM. The GI50 [7] was 0.289 µM, the TGI [7] was 1.53 µM and the GI50 [8] was 0.364 µM. For the same compound, the TGI [8] was 16.3 µM, the GI50 [9] was 0.305 µM and the TGI [9] was 1.79 µM. The GI50 [10] was 0.296 µM, the TGI [10] was 1.44 µM and the GI50 [11] was 0.466 µM. The TGI [11] was over 100 µM, the GI50 [12] was 0.44 µM and the TGI [12] was 13 µM. It also gave a GI50 [13] of 0.285 µM, a TGI [13] of 14 µM and a GI50 [14] of 0.265 µM. It also gave a TGI [14] of 11.7 µM, a GI50 [15] of 0.302 µM and a TGI [15] of 27.5 µM. For the same compound, the GI50 [16] was 0.317 µM, the TGI [16] was 25.7 µM and the GI50 [17] was 0.312 µM. It also gave a TGI [17] of 42.6 µM, a GI50 [18] of 0.352 µM and a TGI [18] of 11.2 µM. The GI50 [19] was 0.326 µM, the TGI [19] was 53.8 µM and the GI50 [20] was 0.35 µM. For the same compound, the TGI [20] was 22.8 µM, the GI50 [21] was 0.328 µM and the TGI [21] was 12.5 µM. The GI50 [22] was 0.338 µM, the TGI [22] was 13.2 µM and the GI50 [23] was 0.511 µM. The TGI [23] was 35 µM, the GI50 [24] was 0.337 µM and the TGI [24] was 12.2 µM. For the same compound, the GI50 [25] was 0.188 µM, the TGI [25] was 0.705 µM and the GI50 [26] was 0.193 µM. It also gave a TGI [26] of 0.446 µM, a GI50 [27] of 0.422 µM and a TGI [27] of over 100 µM. For the same compound, the GI50 [28] was 0.252 µM, the TGI [28] was 0.957 µM and the GI50 [29] was 0.451 µM. The TGI [29] was 14.1 µM, the GI50 [30] was 0.232 µM and the TGI [30] was 0.707 µM. It also gave a GI50 [31] of 0.311 µM, a TGI [31] of 21.6 µM and a GI50 [32] of 0.295 µM. It also gave a TGI [32] of 0.961 µM, a GI50 [33] of 0.262 µM and a TGI [33] of 41.6 µM. For the same compound, the GI50 [34] was 0.363 µM, the TGI [34] was 11.8 µM and the GI50 [35] was 0.245 µM. The TGI [35] was 0.783 µM, the GI50 [36] was 0.269 µM and the TGI [36] was 1.31 µM. For the same compound, the GI50 [37] was 0.273 µM, the TGI [37] was 0.821 µM and the GI50 [38] was 0.327 µM. For the same compound, the TGI [38] was over 100 µM, the GI50 [39] was 0.375 µM and the TGI [39] was 74.7 µM. It also gave a GI50 [40] of 0.286 µM, a TGI [40] of 1.96 µM and a GI50 [41] of 0.203 µM. For the same compound, the TGI [41] was 0.52 µM, the GI50 [42] was 0.312 µM and the TGI [42] was 19.3 µM. The GI50 [43] was 0.25 µM, the TGI [43] was 5.75 µM and the GI50 [44] was 0.331 µM. It also gave a TGI [44] of 8.18 µM, a GI50 [45] of 0.32 µM and a TGI [45] of 10.8 µM. It also gave a GI50 [46] of 0.323 µM, a TGI [46] of over 100 µM and a GI50 [47] of 0.52 µM. For the same compound, the TGI [47] was 2.42 µM, the GI50 [48] was 0.27 µM and the TGI [48] was 0.952 µM. The GI50 [49] was 0.34 µM, the TGI [49] was over 100 µM and the GI50 [50] was 0.316 µM. For the same compound, the TGI [50] was over 100 µM, the GI50 [51] was 0.236 µM and the TGI [51] was 0.797 µM. The GI50 [52] was 0.353 µM, the TGI [52] was 3.28 µM and the GI50 [53] was 0.257 µM. It also gave a TGI [53] of 0.772 µM, a GI50 [54] of 0.365 µM and a TGI [54] of 10.7 µM. For the same compound, the GI50 [55] was 0.231 µM and the TGI [55] was 0.641 µM.

From PubChem BioAssay (NCI)
